Patent US6518423B1, “Benzopiperidine derivatives” (Eisai Co., Ltd., priority 1996, dated 2003)

Row | melting point | Structure (SMILES)
1 | 244 to 246 °C | Cc1nccn1Cc1ccc2c(c1)Nc1nccnc1S2
2 | 262 to 264 °C | N#Cc1ccc(-c2cn(Cc3ccc4c(c3)Nc3nccnc3S4)cn2)cc1
3 | 242 to 246 °C | O=C(O)c1ccc(C(=O)c2nccn2Cc2ccc3c(c2)Nc2nccnc2S3)cc1
4 | 235 °C (dec.) | Cc1ncn(Cc2ccc3c(c2)Nc2nccnc2S3)c1C(=O)O
5 | 202 to 204 °C | COC(C)(C)CC/C(=C\c1ncn(Cc2ccc3c(c2)Nc2nccnc2S3)c1C)C(=O)O
6 | 95 to 98 °C | OC(c1ccccn1)c1nccn1Cc1ccc2c(c1)Nc1nccnc1S2 (stereo not shown)
7 | 199 to 202 °C | Cc1ncn(Cc2ccc3c(c2)Nc2nccnc2S3)c1C(C)(C)O
8 | 205 to 206 °C | CC1C[C@@H](C)C2CN(Cc3ccc4c(c3)Nc3nccnc3S4)CC1C21CC(CC(=O)O)C1 (stereo partly shown)
9 | 210 to 212 °C | c1cnc2c(n1)Nc1cc(Cn3cnnn3)ccc1S2
10 | 84 to 86 °C | COc1ccc(C(O)c2ccc3c(c2)Nc2nccnc2S3)cc1 (stereo not shown)
11 | 241 to 244 °C | CN(Cc1ccc(C(=O)O)cc1)Cc1ccc2c(c1)Nc1nccnc1S2
12 | 245 to 248 °C | O=C(O)c1ccc(CNCc2ccc3c(c2)Nc2nccnc2S3)cc1
13 | 212 °C (dec.) | CCCNC(=O)Cc1ccc2c(c1)Nc1nccnc1S2
14 | 237 to 240 °C | O=C(Nc1ccccc1)OCc1ccc2c(c1)Nc1nccnc1S2
15 | 118 to 120 °C | c1ccc(COCc2ccc3c(c2)Nc2nccnc2S3)cc1
16 | 290 °C | Nc1ncnc2c1ncn2Cc1ccc2c(c1)Nc1nccnc1S2
17 | 229 to 233 °C | CN(C)c1ncnc2c1ncn2Cc1ccc2c(c1)Nc1nccnc1S2
18 | 239 to 240 °C | CN(C)c1nc(N(C)C)c2ncn(Cc3ccc4c(c3)Nc3nccnc3S4)c2n1
19 | 215 to 217 °C | CCc1ncnc2c1ncn2Cc1ccc2c(c1)Nc1nccnc1S2
20 | 266 to 268 °C | CC(=O)c1ncnc2ncn(Cc3ccc4c(c3)Nc3nccnc3S4)c12
21 | 205 to 208 °C | CC(O)c1ncnc2ncn(Cc3ccc4c(c3)Nc3nccnc3S4)c12 (stereo not shown)
22 | 245 to 249 °C (dec.) | Cl.N=C(Cc1ccc2c(c1)Nc1nccnc1S2)Nc1ccccc1
23 | 266 to 268 °C | CC(C)NC(Cc1ccc2c(c1)Nc1nccnc1S2)=NC#N
24 | > 280 °C | Cl.N=C(N)c1ccnc2c1Sc1ccccc1N2
25 | 168 to 170 °C | CS(=O)(=O)NCCC1CCN(Cc2ccc3c(c2)Nc2nccnc2S3)CC1

Row | melting point | Structure (SMILES)
26 | 219 to 221 °C | CS(=O)(=O)N1CCC(NCc2ccc3c(c2)Nc2nccnc2S3)CC1
27 | 110 to 112 °C | CS(=O)(=O)NCC1=CCCN(Cc2ccc3c(c2)Nc2nccnc2S3)C1
28 | 139 to 142 °C | NC(=O)OC1CCN(Cc2ccc3c(c2)Nc2nccnc2S3)CC1
29 | 225 to 228 °C | NC(=O)C1CCN(Cc2ccc3c(c2)Nc2nccnc2S3)CC1
30 | 189 to 190 °C | O=S(=O)(NC1CCN(Cc2ccc3c(c2)Nc2nccnc2S3)CC1)N1CCOCC1
31 | 187 to 188 °C | CC(C)(O)CC1CCN(Cc2ccc3c(c2)Nc2nccnc2S3)CC1
32 | > 275 °C | O=C1NC(=O)C2(CCN(Cc3ccc4c(c3)Nc3nccnc3S4)CC2)N1
33 | 219 to 220 °C | c1ccc2c(c1)CN(Cc1ccc3c(c1)Nc1nccnc1S3)C2
34 | 170 to 173 °C | OCC1(O)CCN(Cc2ccc3c(c2)Nc2nccnc2S3)CC1
35 | 188 to 190 °C | CN(C)S(=O)(=O)CCC1CCN(Cc2ccc3c(c2)Nc2nccnc2S3)CC1
36 | 143 °C (dec.) | O=C(Cc1ccc2c(c1)Nc1nccnc1S2)NCCCN1CCC(C(=O)O)CC1
37 | 219 to 220 °C | CC(CCC1CCN(Cc2ccc3c(c2)Nc2ncncc2S3)CC1)C(=O)O (stereo not shown)
38 | 235 to 238 °C | CC(CCC1CCN(CCCc2ccc3c(c2)Nc2nccnc2S3)CC1)C(=O)O (stereo not shown)
39 | 138 to 140 °C | COc1cc(C2CCN(Cc3ccc4c(c3)Nc3nccnc3S4)CC2)cc(CC(=O)O)c1OC
40 | 210 to 215 °C | CC(CCC1CCN(Cc2ccc3c(c2)Nc2ccncc2S3)CC1)C(=O)O (stereo not shown)
41 | 169 to 172 °C | CC(C(=O)O)C1CC2(CCN(Cc3ccc4c(c3)Nc3nccnc3S4)CC2)C1 (stereo not shown)
42 | 206 to 208 °C | O=C(O)CNC1CCN(Cc2ccc3c(c2)Nc2nccnc2S3)CC1
43 | 155 to 156 °C | O=C(O)C#CC1CCN(Cc2ccc3c(c2)Nc2nccnc2S3)CC1
44 | 200 to 210 °C | O=C(O)CS(=O)(=O)NC1CCN(Cc2ccc3c(c2)Nc2nccnc2S3)CC1
45 | 210 to 215 °C | CS(=O)(=O)N(CC(=O)O)C1CCN(Cc2ccc3c(c2)Nc2nccnc2S3)CC1
46 | 185 to 189 °C | CS(=O)(=O)N1CCC(N(CC(=O)O)Cc2ccc3c(c2)Nc2nccnc2S3)CC1
47 | 204 to 207 °C | O=C(O)COC1CCN(Cc2ccc3c(c2)Nc2nccnc2S3)CC1
48 | > 275 °C | CCOC(=O)c1ccc2c(c1)Nc1nccnc1N2
49 | > 275 °C | N#Cc1ccc2c(c1)Nc1nccnc1N2
50 | 274 to 275 °C | CN1c2ccc(C#N)cc2Nc2nccnc21

Row | melting point | Structure (SMILES)
51 | 253 to 255 °C | O=C(O)c1ccc(CN2c3ccccc3Nc3nccnc32)cc1
52 | 189 to 190 °C | COC(=O)CCCN1c2ccccc2Nc2nccnc21
53 | 215 to 219 °C | CN1c2ccc(C=O)cc2Nc2nccnc21
54 | 268 to 269 °C | CN1c2ccc(-c3cnco3)cc2Nc2nccnc21
55 | 215 to 218 °C | CN1c2ccc(CO)cc2Nc2nccnc21
56 | 204 to 208 °C | CN1c2ccc(C(O)C#Cc3ccccc3)cc2Nc2nccnc21 (stereo not shown)
57 | 185 to 190 °C | CN1c2ccc(C(O)c3nccn3S(=O)(=O)N(C)C)cc2Nc2nccnc21 (stereo not shown)
58 | > 275 °C | CN1c2ccc(C(O)c3nnc[nH]3)cc2Nc2nccnc21 (stereo not shown)
59 | > 275 °C | CN1c2ccc(C(N)c3ccccn3)cc2Nc2nccnc21 (stereo not shown)
60 | 203 to 205 °C | CN(C)C(=O)C#Cc1ccc2c(c1)Nc1nccnc1N2C
61 | 245 to 247 °C | CN1c2ccc(C#Cc3ccccc3)cc2Nc2nccnc21
62 | 194 to 196 °C | c1cc(NCc2ccc3c(c2)Nc2nccnc2S3)ccn1
63 | 222 to 225 °C | c1ccc2c(NCc3ccc4c(c3)Nc3nccnc3S4)nccc2c1
64 | 223 to 225 °C | O=C(O)CCC1C2CCCC1CN(Cc1ccc3c(c1)Nc1nccnc1S3)C2 (stereo not shown)
65 | 244 to 247 °C | CN(C)c1ccc(NCc2ccc3c(c2)Nc2nccnc2S3)cn1
66 | 160 to 164 °C | COc1ccc(NCc2ccc3c(c2)Nc2nccnc2S3)c(OC)n1
67 | 202 to 204 °C | CCc1ccc(NCc2ccc3c(c2)Nc2nccnc2S3)cn1
68 | 160 to 164 °C | CCOC(=O)C(C)(C)CCCCc1ccc(NCc2ccc3c(c2)Nc2nccnc2S3)cn1
69 | 124 to 128 °C | OCCCCCCOc1ccc(NCc2ccc3c(c2)Nc2nccnc2S3)cn1
70 | 215 to 220 °C | O=C(O)c1ccc(NCc2ccc3c(c2)Nc2nccnc2S3)nc1
71 | 158 to 161 °C | CC(C)(CCCCc1ccc(NCc2ccc3c(c2)Nc2nccnc2S3)cn1)C(=O)O
72 | 200 to 203 °C | Clc1ccc(NCc2ccc3c(c2)Nc2nccnc2S3)nc1
73 | 208 to 210 °C | CS(=O)(=O)N(Cc1ccc2c(c1)Nc1nccnc1S2)c1cccnc1
